Article PMC5410289, “Stable H3 peptide was delivered by gold nanorods to inhibit LSD1 activation and induce human mesenchymal stem cells differentiation” (Oncotarget, 2017)

System: human BMSCs
Test: RT-PCR of stemness, differentiation and hepatic marker genes in human BMSCs
Type: cell-based
Details: human MSCs, GAPDH as normalization, treated 2, 7 and 14 days, combination effect seen during 7 days
Description: The human BMSCs were treated with PBS as control, AuNRs, AuNRs-SP nanocomplex, HGF alone and AuNRs-SP nanocomplex+HGF respectively for 2 days, 7 days and 14 days (Figure 7). Consequently, the expression of stemness gene Oct4, differentiation gene Sox17 and two hepatic marker genes, AFP and ck19 in the human MSCs were analyzed by RT-PCR. Comparing with PBS-treated group and AuNRs-treated group, human MSCs were induced to differentiate by AuNRs-SP nanocomplex with the decreased Oct4 and increased Sox17 (Figure 7A and 7B).
After human BMSCs were treated with PBS, AuNRs, HGF, AuNRs-SP and AuNRs-SP+HGF for 14 days, total RNA was extracted using TRIzol (Invitrogen, Carlsbad, CA, USA) and was quantitated by Nano Drop 2000. 2 μg total RNA was reverse transcribed to cDNA using a reverse transcriptase kit (Takara, Japan) according to the manufacturer's instructions. The mRNA levels of the target genes were quantified by RT-PCR, using GAPDH as normalization. Primers used in this study: Oct4 forward 5′-GACAACAATGAGAACCTTCAG-3′ and reverse 5′-CTGGCGCCGGTTACAGAACCA-3′; Sox17 forward 5′-GAGCCAAGGGCGAGTCCCGTA-3′ and reverse 5′-CCTTCCACGACTTGCCCAGCA-3′; AFP forward 5′-AGCGAGGAGAAATGGTCCGG-3′ and reverse 5′-GGA CAT CTT CAC CAT GTG-3′; Ck19 forward 5′-GCACTACAGCCACTACTACAC-3′ and reverse 5′-CTC ATG CGC AGA GCC TGT-3′.

HGF: hepatocyte growth factor
expression of hepatic marker gene AFP (mRNA): could not change the expression of AFP and ck19 until 14 days | expression of hepatic marker gene ck19 (mRNA): could not change the expression of AFP and ck19 until 14 days
